According to EP0147851B1, “Water soluble forms of polyene antibiotics, and process for preparing them” (priority 1983, dated 1985):
Where two headings read alike, the source gives them in different places.

Legend:
[1] = per os; cited from earlier work
Candida albicans = assay: Biological potency of Nystatin, agar diffusion method; format: cell-based
Excerpt: Die vorhergehenden Beispiele beweisen, daß die Polyenantibiotika mit γ-Cyclodextrin Einschlußkomplexe bilden und dadurch ihre Stabilität und Wasserlöslichkeit bedeutend steigt. Entscheidend ist jedoch, ob auch die antifungale Wirkung geblieben ist. Um diese Frage zu beantworten, wurde die antifungale Wirkung der auf unterschiedliche Weise hergestellten Komplexe sowohl sofort nach der Herstellung wie auch nach Lagerung unter Bedingungen, unter denen der nicht durch Komplexbildung geschützte Wirkstoff bereits beträchtliche Aktivitätseinbußen erleidet, untersucht. • a) Flavofungin-γ-Cyclodextrin-Komplex Die antifungale Wirkung der wäßrigen Lösung dieses Komplexes wurde an 6 Spaltpilzen und 13 Fadenpilzen untersucht. Die Ergebnisse sind in der Tabelle 7 zusammengefaßt. Auf Flavofungin bezogen war die minimale Hemmkonzentration in jedem Falle 10-25 µg/ml, was der Wirksamkeit des nicht komplexgebundenen Wirkstoffes entspricht. Es ist besonders bemerkenswert, daß die Substanz auch gegen phytopathogene Fusarien wirkt, d.h. eine Anwendung gegen pilzliche Pflanzenschädlinge begründet ist. Der komplexgebundene Wirkstoff wirkt in der gleichen Konzentration wie Flavofungin. Die Untersuchungenwurden mit der Agardiffusionsmethode vorgenommen. Der Komplex hat den Vorteil, daß zum Bereiten der Lösungen keine organischen Lösungsmittel (DMF bzw. DMSO) erforderlich sind. […]

[2] = Blood level after subcutaneous administration (UV spectrum of serum); format: in vivo, CFY-Ratten; settings: subcutan, 200 mg/kg
Excerpt: • a) Die Resorption von Nystatin aus per os verabreichtem Nystatin-γ-CD-Komplex Die Resorption des Wirkstoffes wurde an Mäusen, an einem durch intravenöse Applikation einer Suspension von Candida albicans hervorgerufenen Sepsismodell untersucht. Die Sepsis verursachte innerhalb von 2-3 Tagen 100 %ige Mortalität. Den Versuchstieren wurde per os gemäß Beispiel 3 hergestellte, 8 % Nystatin enthaltende Komplex verabreicht. In einem Parallelversuch wurde Nystatin intravenös appliziert. Für beide Gruppen wurde die auf die unbehandelte Kontrolle bezogene Verlängerung der Überlebensdauer ermittelt. [formula] Wenn man diejenigen in Form des Komplexes per os verabreichten Nystatindosen mit denjenigen i.v. applizierten Nystatindosen vergleicht, die eine etwa gleiche Verlängerung der Überlebensdauer bewirkten (Tabelle 9, letzte Spalte),so läßt sich errechnen, daß aus dem Komplex durchschnittlich 6,2 % des Wirkstoffes in die Blutbahn gelangten. Bei den höchsten Dosen (i.v. 1,56 mg/kg, p.o. 25 mg/kg) ist das Zurückfallen der Überlebensdauer bereits auf die schwache Toxizität des Nystatins zurückzuführen. • b) Die Resorption von Nystatin aus subcutan appliziertem Nystatin-γ-CD-Komplex Weibliche CFY-Ratten eines durchschnittlichen Gewichtes von 180 g wurden mit Nystatin, mit Nystatin-γ-CD-Komplex (Wirkstoffgehalt9 8 %) beziehungsweise mit γ-CD behandelt. […]

[3] = Solubility of Nystatin in aqueous γ-CD solutions (spectrophotometric); format: physicochemical; settings: for Nystatinkonzentration: 37 °C, 10 min schütteln
Experimental: Ähnlich wie im Falle des Flavofungins wurde auch für Nystatin die Löslichkeit in γ-CD-Lösungen unterschiedlicher Konzentration ermittelt. Die verwendeten wäßrigen γ-CD-Lösungen hatten Konzentrationen von 0, 1, 2,5, 4, 5, 6, 7, 8, 9, 10 und 15 %. Pro ml wurden 20 mg Nystatin zu gesetzt. Die Lösungen wurden bei 37 °C 10 Minuten lang geschüttelt, dann wurde ihr Nystatingehalt spektrophotometrisch bestimmt. Ähnlich wie bei Flavofungin wurde gefunden, daß die Löslichkeit des Nystatins in wäßrigen γ-CD-Lösungen ansteigt und in 5 %iger γ-CD-Lösung etwa das 25fache, in 10 %iger γ-CD-Lösung etwa das 40fache der ursprünglichen Wasserlöslichkeit beträgt. Die Meßergebnisse sind in der Tabelle 2 zusammengestellt.
Die aus dem anfänglich linearen Abschnitt der bei 37 °C aufgenommen Löslichkeitsisotherme berechnete scheinbare Stabilitätskonstante des Komplexes beträgt etwa 500.

C[C@@H]1[C@H](O)[C@@H](C)/C=C/C=C/CC/C=C/C=C/C=C/C=C/C(O[C@H]2O[C@H](C)[C@@H](O)[C@H](N)[C@@H]2O)CC2O[C@](O)(CC(O)C(O)CCC(O)CC(O)CC(O)CC(=O)O[C@H]1C)CC(O)C2C(=O)O (some centres unmarked) [Nystatin]
Blutspiegel [1]: überhaupt nicht meßbar
biologische Aktivität (Candida albicans): 5033 E/mg
biologische Aktivität after treatment without γ-CD (Candida albicans; base substance treated as in Beispiel 5 (40 °C, 24 Stunden in water, lyophilised) without γ-CD): wesentlich schlechter
Blutspiegel [2]: nichts nachzuweisen
Löslichkeit relative to ursprüngliche Wasserlöslichkeit ([3]; 5 %ige γ-CD-Lösung): ~25 fache
Löslichkeit relative to ursprüngliche Wasserlöslichkeit ([3]; 10 %ige γ-CD-Lösung): ~40 fache
Nystatinkonzentration ([3]; γ-CD-Konzentration 0 %): 0,20 mg/ml
Nystatinkonzentration ([3]; γ-CD-Konzentration 1 %): 1,30 mg/ml
Nystatinkonzentration ([3]; γ-CD-Konzentration 2,5 %): 2,36 mg/ml
Nystatinkonzentration ([3]; γ-CD-Konzentration 4 %): 3,95 mg/ml
Nystatinkonzentration ([3]; γ-CD-Konzentration 5 %): 4,70 mg/ml
Nystatinkonzentration ([3]; γ-CD-Konzentration 6 %): 5,50 mg/ml
Nystatinkonzentration ([3]; γ-CD-Konzentration 7 %): 6,30 mg/ml
Nystatinkonzentration ([3]; γ-CD-Konzentration 8 %): 7,20 mg/ml
Nystatinkonzentration ([3]; γ-CD-Konzentration 9 %): 8,10 mg/ml
Nystatinkonzentration ([3]; γ-CD-Konzentration 10 %): 8,95 mg/ml
Nystatinkonzentration ([3]; γ-CD-Konzentration 15 %): 8,20 mg/ml
